{
  "source": "patent US20250230193A1",
  "about": "“CYCLIC COMPOUND HAVING SELECTIVE KRAS INHIBITORY EFFECT ON HRAS AND NRAS” (CHUGAI SEIYAKU KABUSHIKI KAISHA, priority 2022, published 2025)",
  "key": {"[1]": {"biological_target": "GDP-bound HRAS wild-type protein (Homo sapiens, UniProt P01112)", "sequence (P01112 whole entry)": "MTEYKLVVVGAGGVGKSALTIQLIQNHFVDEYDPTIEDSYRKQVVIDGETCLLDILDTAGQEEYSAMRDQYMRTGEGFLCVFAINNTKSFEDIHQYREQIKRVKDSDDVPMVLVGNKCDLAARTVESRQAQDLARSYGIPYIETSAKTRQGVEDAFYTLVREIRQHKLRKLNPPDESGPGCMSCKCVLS", "assay": "Binding to HRAS by surface plasmon resonance (SPR), Single Cycle Kinetics", "conditions": "SPR, GDP-bound HRAS wild-type vs GDP-bound KRAS wild-type"}, "[2]": {"biological_target": "GDP-bound NRAS wild-type protein (Homo sapiens, UniProt P01111)", "sequence (P01111 whole entry)": "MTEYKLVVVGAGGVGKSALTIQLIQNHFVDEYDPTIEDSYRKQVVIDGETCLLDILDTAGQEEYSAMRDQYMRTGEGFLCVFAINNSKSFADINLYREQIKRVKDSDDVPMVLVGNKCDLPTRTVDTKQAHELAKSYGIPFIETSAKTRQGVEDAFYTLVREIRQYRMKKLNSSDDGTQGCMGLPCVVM", "assay": "Binding to NRAS by surface plasmon resonance (SPR), Single Cycle Kinetics", "conditions": "SPR, GDP-bound NRAS wild-type vs GDP-bound KRAS wild-type"}},
  "data": [
    {"smiles": "CCC[C@H]1C(=O)N[C@@H](C2CCCC2)C(=O)N(C)CC(=O)N(C)[C@H]2C/C=C\\CCN(C2=O)[C@@H](Cc2ccc(C)cc2)C(=O)N(C)CC(=O)N[C@@H](CCc2ccc(C(F)(F)F)c(Cl)c2)C(=O)N2C[C@H](OCC)C[C@H]2C(=O)NC2(CC(C)(C)C2)C(=O)N(C)[C@@H](C2CCCC2)C(=O)N(C)[C@H](C(=O)N(C)C)CC(=O)N1C", "note": "[PP2198]", "values": [
      {"measurement": "HRAS/KRAS (ratio of KD value with respect to HRAS to KD value with respect to KRAS)", "setting": "[1]", "value": "A (a compound having 10 or more and less than 20 is denoted as A)"},
      {"measurement": "NRAS/KRAS (ratio of KD value with respect to NRAS to KD value with respect to KRAS)", "setting": "[2]", "value": "A (a compound having 10 or more and less than 20 is denoted as A)"}
    ]},
    {"smiles": "CCC[C@H]1C(=O)N[C@@H](C(CC)CC)C(=O)N(C)CC(=O)N(C)[C@H]2C/C=C\\CCN(C2=O)[C@@H](Cc2ccc(C)cc2)C(=O)N(C)CC(=O)N[C@@H](CCc2ccc(C(F)(F)F)c(Cl)c2)C(=O)N2C[C@H](OCC)C[C@H]2C(=O)NC2(CC(C)(C)C2)C(=O)N(C)[C@@H](CC(C)C)C(=O)N(C)[C@H](C(=O)N(C)C)CC(=O)N1C", "note": "[PP2202]", "values": [
      {"measurement": "HRAS/KRAS (ratio of KD value with respect to HRAS to KD value with respect to KRAS)", "setting": "[1]", "value": "A (a compound having 10 or more and less than 20 is denoted as A)"},
      {"measurement": "NRAS/KRAS (ratio of KD value with respect to NRAS to KD value with respect to KRAS)", "setting": "[2]", "value": "A (a compound having 10 or more and less than 20 is denoted as A)"}
    ]},
    {"smiles": "CCCOC[C@H]1C(=O)N[C@@H]([C@@H](C)CC)C(=O)N(C)CC(=O)N(C)[C@H]2C/C=C\\CCN(C2=O)[C@@H](Cc2ccc(C)cc2)C(=O)N(C)CC(=O)N[C@@H](CCc2cc(F)c(C(F)(F)F)c(F)c2)C(=O)N2C[C@H](CCC)C[C@H]2C(=O)NC2(CC(C)(C)C2)C(=O)N(C)[C@@H](C2CCCC2)C(=O)N(C)[C@H](C(=O)N(C)C)CC(=O)N1C", "note": "[PP2203]", "values": [
      {"measurement": "HRAS/KRAS (ratio of KD value with respect to HRAS to KD value with respect to KRAS)", "setting": "[1]", "value": "A (a compound having 10 or more and less than 20 is denoted as A)"},
      {"measurement": "NRAS/KRAS (ratio of KD value with respect to NRAS to KD value with respect to KRAS)", "setting": "[2]", "value": "A (a compound having 10 or more and less than 20 is denoted as A)"}
    ]},
    {"smiles": "CCC[C@H]1C(=O)N[C@@H](C(CC)CC)C(=O)N(C)CC(=O)N(C)[C@H]2C/C=C\\CCN(C2=O)[C@@H](Cc2ccc(C)cc2)C(=O)N(C)CC(=O)N[C@@H](CCc2ccc(C(F)(F)F)c(Cl)c2)C(=O)N2C[C@H](OCC)C[C@H]2C(=O)NC2(CC(C)(C)C2)C(=O)N(C)[C@@H](CC(C)(C)C)C(=O)N(C)[C@H](C(=O)N(C)C)CC(=O)N1C", "note": "[PP2207]", "values": [
      {"measurement": "HRAS/KRAS (ratio of KD value with respect to HRAS to KD value with respect to KRAS)", "setting": "[1]", "value": "A (a compound having 10 or more and less than 20 is denoted as A)"},
      {"measurement": "NRAS/KRAS (ratio of KD value with respect to NRAS to KD value with respect to KRAS)", "setting": "[2]", "value": "A (a compound having 10 or more and less than 20 is denoted as A)"}
    ]},
    {"smiles": "CCC[C@@H]1C[C@H]2C(=O)NC3(CC(C)(C)C3)C(=O)N(C)[C@@H](C3CCCC3)C(=O)N(C)[C@H](C(=O)N(C)C)CC(=O)N(C)[C@@H](CC)C(=O)N[C@@H]([C@@H](C)CC)C(=O)N(C)CC(=O)N(C)[C@H]3C/C=C\\CCN(C3=O)[C@@H](Cc3ccc(C)cc3)C(=O)N(C)CC(=O)N[C@@H](CCc3cc(F)c(C(F)(F)F)c(F)c3)C(=O)N2C1", "note": "[PP2208]", "values": [
      {"measurement": "HRAS/KRAS (ratio of KD value with respect to HRAS to KD value with respect to KRAS)", "setting": "[1]", "value": "A (a compound having 10 or more and less than 20 is denoted as A)"},
      {"measurement": "NRAS/KRAS (ratio of KD value with respect to NRAS to KD value with respect to KRAS)", "setting": "[2]", "value": "A (a compound having 10 or more and less than 20 is denoted as A)"}
    ]},
    {"smiles": "CCC[C@H]1C(=O)N[C@@H](C(CC)CC)C(=O)N(C)CC(=O)N(C)[C@H]2C/C=C\\CCN(C2=O)[C@@H](Cc2ccc(C)cc2)C(=O)N(C)CC(=O)N[C@@H](CCc2ccc(C(F)(F)F)c(Cl)c2)C(=O)N2C[C@H](OCC)C[C@H]2C(=O)NC2(CC(C)(C)C2)C(=O)N(C)[C@@H](C2CCCC2)C(=O)N(C)[C@H](C(=O)N(C)C)CC(=O)N1C", "note": "[PP2209]", "values": [
      {"measurement": "HRAS/KRAS (ratio of KD value with respect to HRAS to KD value with respect to KRAS)", "setting": "[1]", "value": "A (a compound having 10 or more and less than 20 is denoted as A)"},
      {"measurement": "NRAS/KRAS (ratio of KD value with respect to NRAS to KD value with respect to KRAS)", "setting": "[2]", "value": "A (a compound having 10 or more and less than 20 is denoted as A)"}
    ]},
    {"smiles": "CCC[C@H]1C(=O)N[C@@H]([C@@H](C)CC)C(=O)N(C)CC(=O)N(C)[C@H]2C/C=C\\CCN(C2=O)[C@@H](Cc2ccc(C)cc2)C(=O)N(C)CC(=O)N[C@@H](CCc2ccc(C(F)(F)F)c(Cl)c2)C(=O)N2C[C@H](C)C[C@H]2C(=O)NC2(CC(C)(C)C2)C(=O)N(C)[C@@H](C2CCCC2)C(=O)N(C)[C@H](C(=O)N(C)C)CC(=O)N1C", "note": "[PP2210]", "values": [
      {"measurement": "HRAS/KRAS (ratio of KD value with respect to HRAS to KD value with respect to KRAS)", "setting": "[1]", "value": "B (a compound having 3 or more and less than 10 is denoted as B)"},
      {"measurement": "NRAS/KRAS (ratio of KD value with respect to NRAS to KD value with respect to KRAS)", "setting": "[2]", "value": "A (a compound having 10 or more and less than 20 is denoted as A)"}
    ]},
    {"smiles": "CCC[C@H]1C(=O)N[C@@H]([C@@H](C)CC)C(=O)N(C)CC(=O)N(C)[C@H]2C/C=C\\CCN(C2=O)[C@@H](Cc2ccc(C)cc2)C(=O)N(C)CC(=O)N[C@@H](CCc2ccc(C(F)(F)F)c(Cl)c2)C(=O)N2C[C@H](CC)C[C@H]2C(=O)NC2(CC(C)(C)C2)C(=O)N(C)[C@@H](C2CCCC2)C(=O)N(C)[C@H](C(=O)N(C)C)CC(=O)N1C", "note": "[PP2212]", "values": [
      {"measurement": "HRAS/KRAS (ratio of KD value with respect to HRAS to KD value with respect to KRAS)", "setting": "[1]", "value": "B (a compound having 3 or more and less than 10 is denoted as B)"},
      {"measurement": "NRAS/KRAS (ratio of KD value with respect to NRAS to KD value with respect to KRAS)", "setting": "[2]", "value": "A (a compound having 10 or more and less than 20 is denoted as A)"}
    ]},
    {"smiles": "CCC[C@@H]1C[C@H]2C(=O)NC3(CC(C)(C)C3)C(=O)N(C)[C@@H](C3CCCC3)C(=O)N(C)[C@H](C(=O)N(C)C)CC(=O)N(C)[C@@H](CCC)C(=O)N[C@@H]([C@@H](C)CC)C(=O)N(C)CC(=O)N(C)[C@H]3C/C=C\\CCN(C3=O)[C@@H](Cc3ccc(C)cc3)C(=O)N(C)CC(=O)N[C@@H](CCc3ccc(C(F)(F)F)c(Cl)c3)C(=O)N2C1", "note": "[PP2214]", "values": [
      {"measurement": "HRAS/KRAS (ratio of KD value with respect to HRAS to KD value with respect to KRAS)", "setting": "[1]", "value": "A (a compound having 10 or more and less than 20 is denoted as A)"},
      {"measurement": "NRAS/KRAS (ratio of KD value with respect to NRAS to KD value with respect to KRAS)", "setting": "[2]", "value": "A (a compound having 10 or more and less than 20 is denoted as A)"}
    ]},
    {"smiles": "CCC[C@H]1C(=O)N[C@@H]([C@@H](C)CC)C(=O)N(C)CC(=O)N(C)[C@H]2C/C=C\\CCN(C2=O)[C@@H](Cc2ccc(C)cc2)C(=O)N(C)CC(=O)N[C@@H](CCc2cc(F)c(C(F)(F)F)c(F)c2)C(=O)N2C[C@H](CC)C[C@H]2C(=O)NC2(CCCC2)C(=O)N(C)[C@@H](C2CCCC2)C(=O)N(C)[C@H](C(=O)N(C)C)CC(=O)N1C", "note": "[PP2216]", "values": [
      {"measurement": "HRAS/KRAS (ratio of KD value with respect to HRAS to KD value with respect to KRAS)", "setting": "[1]", "value": "A (a compound having 10 or more and less than 20 is denoted as A)"},
      {"measurement": "NRAS/KRAS (ratio of KD value with respect to NRAS to KD value with respect to KRAS)", "setting": "[2]", "value": "A (a compound having 10 or more and less than 20 is denoted as A)"}
    ]},
    {"smiles": "CCCOC[C@H]1C(=O)N[C@@H]([C@@H](C)CC)C(=O)N(C)CC(=O)N(C)[C@H]2C/C=C\\CCN(C2=O)[C@@H](Cc2ccc(C)cc2)C(=O)N(C)CC(=O)N[C@@H](CCc2cc(F)c(C(F)(F)F)c(F)c2)C(=O)N2C[C@H](CC)C[C@H]2C(=O)NC2(CCCC2)C(=O)N(C)[C@@H](C2CCCC2)C(=O)N(C)[C@H](C(=O)N(C)C)CC(=O)N1C", "note": "[PP2218]", "values": [
      {"measurement": "HRAS/KRAS (ratio of KD value with respect to HRAS to KD value with respect to KRAS)", "setting": "[1]", "value": "A (a compound having 10 or more and less than 20 is denoted as A)"},
      {"measurement": "NRAS/KRAS (ratio of KD value with respect to NRAS to KD value with respect to KRAS)", "setting": "[2]", "value": "A (a compound having 10 or more and less than 20 is denoted as A)"}
    ]}
  ]
}
